Assay results from patent US20110034692A1 (ZENTIVA, K.S., priority 2008, published 2011).
Where two headings read alike, the source gives them in different places.

Assays:
[1] = for content of (Z)-montelukast in isolated montelukast: after 3 hours reflux in toluene, precipitation with heptane
[2] = Stress test: methanolic solution of montelukast exposed to sunshine and air oxygen, HPLC monitoring; type: physicochemical
Protocol: The solution in glass apparatus was exposed to the influence of sunshine and air oxygen and samples were take repeatedly (at the times of 40 minutes, 1 day, 4 days and 14 days) (20 μl of the mixture further diluted by methanol to the volume of 1 ml) for HPLC analysis in the isocratic mode.
HPLC chromatograms were measured with the EliteLachrom device of Hitachi. For the analyses a column filled with the stationary phase of RP-18e was used, column temperature 20° C. As the mobile phase a mixture of acetonitrile (80%) and a 0.1 M aqueous solution of ammonium formate, treated with formic acid to pH 3.6 (20%), was used. The measurements were performed in the isocratic mode with the mobile phase flow rate of 1.5 ml/min. Spectrophotometric detection at the wavelength of 234 nm was used. For the preparation of the samples to be analyzed methanol was used as the solvent, 10-20 μl of the prepared solution were used for the injection.

[3] = Light exposure of methanolic montelukast solution to sunshine under inert argon, (Z)-isomer content by HPLC; type: physicochemical; conditions: methanol solution, argon atmosphere

Row | SMILES | content of (Z)-montelukast in isolated montelukast [1] | content of (Z)-montelukast in isolated montelukast ([1]; listed as (Z)-isomer) | content of (Z)-montelukast, initial mixture of isomers ([1]; before reflux, toluene solution) | content of (Z)-montelukast after 30 minutes of reflux ([1]; toluene, without light) | content of (Z)-montelukast after 60 minutes of reflux ([1]; toluene, without light) | rate of transformation of montelukast to (Z)-montelukast sulfoxide (XII) ([2]; light and oxygen induced degradation) | rate of transformation of montelukast (I) to (Z)-montelukast (V) ([2]; methanolic solution, sunshine and air oxygen) | sensitivity of the substance to light and air oxygen ([2]; methanolic solution, sunshine and air oxygen, HPLC isocratic) | content of the (Z)-isomer according to HPLC after exposure to sunshine ([3]; sunshine 1.5 hours (Example 7)) | content of the (Z)-isomer according to HPLC after exposure to sunshine ([3]; sunshine 1.5 hours (Example 7), listed as Montelukast) | content of the (Z)-isomer according to HPLC after exposure to sunshine ([3]; sunshine 4 days (Example 9))
1 | CC(C)(O)c1ccccc1CC[C@@H](SCC1(CC(=O)[O-])CC1)c1cccc(/C=C\c2ccc3ccc(Cl)cc3n2)c1.[Na+] [(Z)-montelukast, sodium salt of 1-[[[(1R)-1-[3-[(1Z)-2-(7-chloro-2-quinolinyl)ethenyl]phenyl]-3-[2-(1-hydroxy-1-methylethyl)phenyl]propyl]thio]methyl]cyclopropane acetic acid] | below 0.1% | less than 0.1% | 11% | 5.6% | 2.7% | – | – | – | – | – | –
2 | CC(C)(O)c1ccccc1CC[C@@H](SCC1(CC(=O)[O-])CC1)c1cccc(/C=C/c2ccc3ccc(Cl)cc3n2)c1.[Na+] [montelukast, sodium salt of [R-(E)]-1-[[[1-[3-[2-(7-chloro-2-quinolinyl)ethenyl]phenyl]-3-[2-(1-hydroxy-1-methylethyl)phenyl]propyl]thio]-methyl]cyclopropane acetic acid] | – | – | – | – | – | relatively slow | unexpectedly fast | high sensitivity | 11% | approximately 11% | approx. 73%
